Test results: article PMC2707017, “Synthesis and enzymatic evaluation of 2- and 4-aminothiazole-based inhibitors of neuronal nitric oxide synthase” (Beilstein Journal of Organic Chemistry, 2009)

What was measured:
bovine eNOS [1] = target: T1, bovine eNOS (Bos taurus, UniProt P29473); conditions: nNOS over eNOS; cited from earlier work
rat nNOS [2] = target: T2, rat nNOS (Rattus norvegicus, UniProt P29476); conditions: cited from earlier work
neuronal damage = tested on: neuronal damage; set-up: method as in PMID 19235180; conditions: intravenous administration, cerebral palsy rabbit model; cited from earlier work
[3] = set-up: method as in printed; conditions: aminothiazole ring nitrogen; stated without measurement, ref not given; cited from earlier work
rat nNOS [4] = target: T2, rat nNOS; assay: hemoglobin capture assay, nNOS
Description: In vitro enzyme assay. The NOS isoforms used were recombinant enzymes overexpressed in E. coli. Rat nNOS [6], bovine eNOS [7], and murine macrophage iNOS [8], and were overexpressed and isolated as reported. The formation of nitric oxide was monitored using a hemoglobin capture assay as described previously. […] For the determination of inhibition of iNOS, no additional Ca^2+ or calmodulin were added. The assay was initiated by the addition of enzyme, and the absorption of UV light at 400 nm was recorded over one minute. As NO was evolved and coordinated to the hemoglobin, the absorption at 400 nm increased, producing a value for the enzyme velocity under these conditions. A value for the initial rate was obtained when no inhibitor was added (v0). The velocity of the enzyme (v) was then determined in the presence of varying concentrations of inhibitor, until a concentration of inhibitor that reduced the enzyme velocity to half its initial value (v/v0 ~ 0.5) was discovered. Concentrations of inhibitor above and below this value were tested and a graph of v/v0 versus inhibitor concentration ([I]) was plotted. Experiments were repeated at least three times and until a R^2 >0.99 was obtained. Extrapolation of this graph allowed the determination of an IC50 value. The Ki can be estimated from the IC50 if the Km for the substrate is known, using the equations below.

murine iNOS = murine iNOS (Mus musculus, UniProt P29477); assay: hemoglobin capture assay, iNOS
Description: (§1) The NOS isoforms used were recombinant enzymes overexpressed in E. coli. Rat nNOS [6], bovine eNOS [7], and murine macrophage iNOS [8], and were overexpressed and isolated as reported. The formation of nitric oxide was monitored using a hemoglobin capture assay as described previously. Briefly, a solution of nNOS or eNOS containing 10 µM L-arginine, 1.6 mM CaCl2, 11.6 µg/mL calmodulin, 100 µM DTT, 100 µM NADPH, 6.5 µM H4B, 125 µg/mL oxyhemoglobin, and varying concentrations of inhibitor in 100 mM Hepes (pH 7.4) was monitored at 30 °C. For the determination of inhibition of iNOS, no additional Ca^2+ or calmodulin were added. The assay was initiated by the addition of enzyme, and the absorption of UV light at 400 nm was recorded over one minute. As NO was evolved and coordinated to the hemoglobin, the absorption at 400 nm increased, producing a value for the enzyme velocity under these conditions. A value for the initial rate was obtained when no inhibitor was added (v0). The velocity of the enzyme (v) was then determined in the presence of varying concentrations of inhibitor, until a concentration of inhibitor that reduced the enzyme velocity to half its initial value (v/v0 ~ 0.5) was discovered. Concentrations of inhibitor above and below this value were tested and a graph of v/v0 versus inhibitor concentration ([I]) was plotted. […]

bovine eNOS [5] = target: T1, bovine eNOS; assay: hemoglobin capture assay, eNOS
Description: as §1

NCCN[C@@H]1CNC[C@@H]1Cc1cccc(N)n1 (relative stereo) [Compound 1]
selectivity over eNOS (bovine eNOS [1]): more than 1000 fold
nNOS inhibitory potency (rat nNOS [2]): nanomolar

Cc1cc(N)nc(C[C@H]2CNC[C@H]2NCCNCc2ccc(Cl)cc2)c1 (relative stereo) [Compound 2]
protection against neuronal damage (neuronal damage): significant protection against neuronal damage

Nc1nc(CC2CNCC2NCCNCc2ccc(Cl)cc2)cs1 (stereo not shown) [Compound 3]
pKa of ring nitrogen [3]: ≈ 6
Ki (rat nNOS [4]): 10 µM
Ki (murine iNOS): 50 µM
Ki (bovine eNOS [5]): 1000 µM
